Measured values from PubChem BioAssay (NCI).
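Step 1: Grow cells in 96-well plates. Step 2: Expose to compound for 48 hours at 5 concentrations. Step 3: Interpolate endpoints linearly; if unreached, use highest concentration. GI50 is the concentration that inhibits growth by half. TGI marks complete inhibition of growth.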

Legend:
Assay in all cases: inhibition of tumour cell growth, NCI panel, 48 h
U251 CNS = system: U251 CNS
T-47D breast = system: T-47D breast
RXF 393 renal = system: RXF 393 renal
SNB-75 CNS = system: SNB-75 CNS
HCC-2998 colon = system: HCC-2998 colon
OVCAR-8 ovarian = system: OVCAR-8 ovarian
MCF7 breast = system: MCF7 breast
UACC-257 melanoma = system: UACC-257 melanoma
HOP-62 NSCLC = system: HOP-62 NSCLC
HT29 colon = system: HT29 colon
DU-145 prostate = system: DU-145 prostate
ACHN renal = system: ACHN renal
MDA-MB-468 breast = system: MDA-MB-468 breast
HCT-116 colon = system: HCT-116 colon
KM12 colon = system: KM12 colon
HCT-15 colon = system: HCT-15 colon
NCI-H226 lung = system: NCI-H226 lung
UO-31 renal = system: UO-31 renal
A498 renal = system: A498 renal
LOX IMVI melanoma = system: LOX IMVI melanoma
SF-268 CNS = system: SF-268 CNS
M14 melanoma = system: M14 melanoma
TK-10 renal = system: TK-10 renal
OVCAR-5 ovarian = system: OVCAR-5 ovarian
SR leukemia = system: SR leukemia
K-562 leukemia = system: K-562 leukemia
MDA-MB-435 = system: MDA-MB-435
NCI-H460 lung = system: NCI-H460 lung
MOLT-4 leukemia = system: MOLT-4 leukemia
SK-MEL-5 melanoma = system: SK-MEL-5 melanoma
OVCAR-3 ovarian = system: OVCAR-3 ovarian
PC-3 prostate = system: PC-3 prostate
SK-MEL-2 melanoma = system: SK-MEL-2 melanoma
SW-620 colon = system: SW-620 colon
UACC-62 melanoma = system: UACC-62 melanoma
IGROV1 ovarian = system: IGROV1 ovarian
NCI-H23 lung = system: NCI-H23 lung
786-0 renal = system: 786-0 renal
CAKI-1 renal = system: CAKI-1 renal
SK-MEL-28 melanoma = system: SK-MEL-28 melanoma
BT-549 breast = system: BT-549 breast
MALME-3M melanoma = system: MALME-3M melanoma
A549 NSCLC = system: A549 NSCLC
HS 578T breast = system: HS 578T breast
SN12C renal = system: SN12C renal
SNB-19 CNS = system: SNB-19 CNS
MDA-MB-231 breast = system: MDA-MB-231 breast
COLO 205 colon = system: COLO 205 colon
HL-60(TB) leukemia = system: HL-60(TB) leukemia
RPMI-8226 leukemia = system: RPMI-8226 leukemia
NCI-H522 lung = system: NCI-H522 lung
SF-539 CNS = system: SF-539 CNS
SF-295 CNS = system: SF-295 CNS
EKVX NSCLC = system: EKVX NSCLC
SK-OV-3 ovarian = system: SK-OV-3 ovarian
HOP-92 NSCLC = system: HOP-92 NSCLC
NCI/ADR-RES ovarian = system: NCI/ADR-RES ovarian
CCRF-CEM leukemia = system: CCRF-CEM leukemia
OVCAR-4 ovarian = system: OVCAR-4 ovarian

`COc1nc(N)ncc1-c1ccc2ncnc(N3CCc4cc(F)c(Cl)cc43)c2c1` was tested, and the GI50 (U251 CNS) was 2.3 µM, the TGI (U251 CNS) was 7.74 µM and the GI50 (T-47D breast) was 1.61 µM. The TGI (T-47D breast) was 7.67 µM, the GI50 (RXF 393 renal) was 1.5 µM and the TGI (RXF 393 renal) was 5.28 µM. The GI50 (SNB-75 CNS) was 1.47 µM, the TGI (SNB-75 CNS) was 4.02 µM and the GI50 (HCC-2998 colon) was 2.79 µM. For the same molecule, the TGI (HCC-2998 colon) was 10.1 µM, the GI50 (OVCAR-8 ovarian) was 2.33 µM and the TGI (OVCAR-8 ovarian) was 9.2 µM. It also gave a GI50 (MCF7 breast) of 3.11 µM, a TGI (MCF7 breast) of 22 µM and a GI50 (UACC-257 melanoma) of 8.26 µM. It also gave a TGI (UACC-257 melanoma) of 83.6 µM, a GI50 (HOP-62 NSCLC) of 1.47 µM and a TGI (HOP-62 NSCLC) of 5.85 µM. It also gave a GI50 (HT29 colon) of 7.86 µM, a TGI (HT29 colon) of 52.2 µM and a GI50 (DU-145 prostate) of 3.82 µM. The TGI (DU-145 prostate) was 36.2 µM, the GI50 (ACHN renal) was 1.21 µM and the TGI (ACHN renal) was 4.22 µM. For the same molecule, the GI50 (MDA-MB-468 breast) was 0.269 µM, the TGI (MDA-MB-468 breast) was 1.81 µM and the GI50 (HCT-116 colon) was 2.93 µM. For the same molecule, the TGI (HCT-116 colon) was 11.3 µM, the GI50 (KM12 colon) was 10.4 µM and the TGI (KM12 colon) was greater than 100 µM. The GI50 (HCT-15 colon) was 3.04 µM, the TGI (HCT-15 colon) was 24.7 µM and the GI50 (NCI-H226 lung) was 1.15 µM. For the same molecule, the TGI (NCI-H226 lung) was 4.21 µM, the GI50 (UO-31 renal) was 0.583 µM and the TGI (UO-31 renal) was 3.99 µM. It also gave a GI50 (A498 renal) of 1.54 µM, a TGI (A498 renal) of 5.43 µM and a GI50 (LOX IMVI melanoma) of 3.11 µM. The TGI (LOX IMVI melanoma) was 14.8 µM, the GI50 (SF-268 CNS) was 12.3 µM and the TGI (SF-268 CNS) was greater than 100 µM. It also gave a GI50 (M14 melanoma) of 18.9 µM, a TGI (M14 melanoma) greater than 100 µM and a GI50 (TK-10 renal) of 0.703 µM. The TGI (TK-10 renal) was 4.23 µM, the GI50 (OVCAR-5 ovarian) was 3.92 µM and the TGI (OVCAR-5 ovarian) was greater than 100 µM. The GI50 (SR leukemia) was 3.09 µM, the TGI (SR leukemia) was greater than 100 µM and the GI50 (K-562 leukemia) was 6.45 µM. The TGI (K-562 leukemia) was greater than 100 µM, the GI50 (MDA-MB-435) was 6.94 µM and the TGI (MDA-MB-435) was greater than 100 µM. The GI50 (NCI-H460 lung) was 2.65 µM, the TGI (NCI-H460 lung) was 7.97 µM and the GI50 (MOLT-4 leukemia) was 11.7 µM. For the same molecule, the TGI (MOLT-4 leukemia) was greater than 100 µM, the GI50 (SK-MEL-5 melanoma) was 4.15 µM and the TGI (SK-MEL-5 melanoma) was greater than 100 µM. The GI50 (OVCAR-3 ovarian) was 2.3 µM, the TGI (OVCAR-3 ovarian) was 11.2 µM and the GI50 (PC-3 prostate) was 10.6 µM. It also gave a TGI (PC-3 prostate) greater than 100 µM, a GI50 (SK-MEL-2 melanoma) greater than 100 µM and a TGI (SK-MEL-2 melanoma) greater than 100 µM. For the same molecule, the GI50 (SW-620 colon) was 4.26 µM, the TGI (SW-620 colon) was greater than 100 µM and the GI50 (UACC-62 melanoma) was 3.92 µM. For the same molecule, the TGI (UACC-62 melanoma) was 19.9 µM, the GI50 (IGROV1 ovarian) was 0.594 µM and the TGI (IGROV1 ovarian) was 3.82 µM. It also gave a GI50 (NCI-H23 lung) of 4.26 µM, a TGI (NCI-H23 lung) of 39.1 µM and a GI50 (786-0 renal) of 1.49 µM. The TGI (786-0 renal) was 3.38 µM, the GI50 (CAKI-1 renal) was 1.2 µM and the TGI (CAKI-1 renal) was 3.78 µM. For the same molecule, the GI50 (SK-MEL-28 melanoma) was 5.2 µM, the TGI (SK-MEL-28 melanoma) was 18.9 µM and the GI50 (BT-549 breast) was 6.44 µM. It also gave a TGI (BT-549 breast) greater than 100 µM, a GI50 (MALME-3M melanoma) of 8.68 µM and a TGI (MALME-3M melanoma) of 49.4 µM. It also gave a GI50 (A549 NSCLC) of 2.04 µM, a TGI (A549 NSCLC) of 8.55 µM and a GI50 (HS 578T breast) of 2 µM. It also gave a TGI (HS 578T breast) of 8.4 µM, a GI50 (SN12C renal) of 1.92 µM and a TGI (SN12C renal) of 10.1 µM. The GI50 (SNB-19 CNS) was 2.21 µM, the TGI (SNB-19 CNS) was 12.2 µM and the GI50 (MDA-MB-231 breast) was 1.84 µM. It also gave a TGI (MDA-MB-231 breast) of 6.46 µM, a GI50 (COLO 205 colon) of 3.37 µM and a TGI (COLO 205 colon) greater than 100 µM. For the same molecule, the GI50 (HL-60(TB) leukemia) was 3.08 µM, the TGI (HL-60(TB) leukemia) was greater than 100 µM and the GI50 (RPMI-8226 leukemia) was 3.26 µM. For the same molecule, the TGI (RPMI-8226 leukemia) was greater than 100 µM, the GI50 (NCI-H522 lung) was 2.3 µM and the TGI (NCI-H522 lung) was 11.5 µM. It also gave a GI50 (SF-539 CNS) of 2.96 µM, a TGI (SF-539 CNS) of 12.5 µM and a GI50 (SF-295 CNS) of 2.37 µM. It also gave a TGI (SF-295 CNS) of 7.58 µM, a GI50 (EKVX NSCLC) of 1.93 µM and a TGI (EKVX NSCLC) of 86.2 µM. The GI50 (SK-OV-3 ovarian) was 1.62 µM, the TGI (SK-OV-3 ovarian) was 4.03 µM and the GI50 (HOP-92 NSCLC) was 1.81 µM. The TGI (HOP-92 NSCLC) was 7.23 µM, the GI50 (NCI/ADR-RES ovarian) was 2.73 µM and the TGI (NCI/ADR-RES ovarian) was 15.7 µM. For the same molecule, the GI50 (CCRF-CEM leukemia) was 26 µM, the TGI (CCRF-CEM leukemia) was greater than 100 µM and the GI50 (OVCAR-4 ovarian) was 1.87 µM. For the same molecule, the TGI (OVCAR-4 ovarian) was 4.28 µM.
